Test results as given in patent publication US20230357179A1, “RAF KINASE INHIBITORS AND METHODS OF USE THEREOF” (Deciphera Pharmaceuticals, LLC, priority 2021, published 2023).

Key:
B-Raf (V600E) kinase = target: T1, B-Raf (V600E) kinase (Homo sapiens, UniProt P15056, V600E); assay: Biochemical assay for B-Raf (V600E).1 (coupled pyruvate kinase/lactate dehydrogenase); conditions: read-out: BRAF V600E.1 IC50
T1 construct: B-Raf (V600E) residues 416-766 with a; GST (N); purchased SignalChem
In short: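 0.03 nM B-Raf(V600E) phosphorylating 30.1 nM MEK at 1 mM ATP, pH 7.5, coupled to PK/LDH, with NADH oxidation followed at 340 nm for 6 h at 30 °C. Rates taken from the 3-4 h window. IC50 from a four-parameter fit of percent inhibition.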

C-Raf kinase = target: T2, C-Raf kinase (Homo sapiens, UniProt P04049, Y340D/Y341D); assay: Biochemical assay for C-Raf.1 (coupled pyruvate kinase/lactate dehydrogenase); conditions: read-out: CRAF.1 IC50
T2 construct: Y340D,; GST (N); purchased Sigma
T2 sequence (P04049 307-648 Y340D/Y341D): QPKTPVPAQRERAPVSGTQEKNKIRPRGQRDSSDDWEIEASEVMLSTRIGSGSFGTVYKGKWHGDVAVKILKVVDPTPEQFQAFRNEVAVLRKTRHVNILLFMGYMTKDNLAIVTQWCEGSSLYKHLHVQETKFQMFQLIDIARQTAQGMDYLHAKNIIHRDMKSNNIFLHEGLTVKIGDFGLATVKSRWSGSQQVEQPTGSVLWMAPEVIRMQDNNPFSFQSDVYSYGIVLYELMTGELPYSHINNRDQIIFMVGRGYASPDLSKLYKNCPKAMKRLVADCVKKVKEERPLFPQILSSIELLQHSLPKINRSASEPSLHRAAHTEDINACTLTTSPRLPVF
In short: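 C-Raf (0.43 nM) with MEK 30.1 nM and 1 mM ATP in Tris pH 7.5/MgCl2 buffer, activity coupled via PK/LDH to NADH oxidation (A340), 6 h at 30° C. Rates from 4–5 h window converted to % inhibition versus controls; IC50 by four-parameter fit, 1% DMSO.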

Miapaca-2 cells = assay: MiaPaca-2 cell proliferation assay (1), resazurin, 96-well; assay type: cell-based; conditions: Homo sapiens, MIA PaCa-2, inhibition of cell proliferation
In short: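 Three thousand cells per well in DMEM with 10% FBS and 2.5% horse serum exposed to serially diluted compound in triplicate for 67-72 h at 37 °C, 5% CO2. Viability by resazurin (additional 5-6 h), fluorescence ex 540/em 600 nm; IC50 calculated.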

H2405 cells = assay: H2405 cell proliferation assay (1), resazurin, 96-well; assay type: cell-based; conditions: Homo sapiens, NCI-H2405, inhibition of cell proliferation
In short: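 This is a resazurin viability readout (excitation 540 nm, emission 600 nm) taken 5-6 h after adding 440 μM resazurin solution, giving IC50 values.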

T1 sequence (P15056 416-766 V600E): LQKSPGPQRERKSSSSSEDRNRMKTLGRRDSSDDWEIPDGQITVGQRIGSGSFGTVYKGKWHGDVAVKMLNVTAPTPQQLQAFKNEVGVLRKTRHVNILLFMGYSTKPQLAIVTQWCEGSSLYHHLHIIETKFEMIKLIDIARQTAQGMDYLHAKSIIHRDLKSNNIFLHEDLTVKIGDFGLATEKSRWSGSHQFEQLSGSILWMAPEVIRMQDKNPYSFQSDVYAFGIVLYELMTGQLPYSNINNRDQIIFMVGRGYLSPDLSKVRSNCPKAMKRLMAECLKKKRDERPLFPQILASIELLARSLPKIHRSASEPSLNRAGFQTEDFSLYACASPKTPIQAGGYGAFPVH

| SMILES | IC50 (B-Raf (V600E) kinase) | IC50 (C-Raf kinase) | IC50 (Miapaca-2 cells) | IC50 (H2405 cells) |
| --- | --- | --- | --- | --- |
| Cc1ccc(NC(=O)NCCC(C)(C)C)cc1-c1ccnc(N2CCOCC2)c1 [Example 18] | ≤ 100 nM | ≤ 100 nM | 1000 to 10000 nM | – |
| Cc1cc(F)c(NC(=O)NCCC(C)(C)C#N)cc1-c1cc(N2CCOCC2)nc(N2CCOCC2)c1 [Example 22] | ≤ 100 nM | ≤ 100 nM | 1000 to 10000 nM | 1000 to 10000 nM |
| Cc1cc(F)c(NC(=O)NCCC2(C(F)(F)F)CC2)cc1-c1cc(N2CCOCC2)nc(N2CCOCC2)c1 [Example 23] | ≤ 100 nM | ≤ 100 nM | 1000 to 10000 nM | 100 to 500 nM |
| Cc1cc(F)c(NC(=O)NCCC2(C(F)(F)F)CC2)cc1-c1cc(OCCO)nc(C2CCOCC2)c1 [Example 24] | ≤ 100 nM | ≤ 100 nM | 1000 to 10000 nM | 100 to 500 nM |
| CC(=O)Nc1cc(-c2cc(-c3cc(NC(=O)NCCC4(C)CC4)c(F)cc3C)cc(OCCO)n2)ccn1 [Example 33] | ≤ 100 nM | ≤ 100 nM | 100 to 500 nM | ≤ 100 nM |
| Cc1cc(F)c(NC(=O)NCCC2(C)CC2)cc1-c1cc(OCC(C)(C)O)nc(-c2ccncc2)c1 [Example 34] | ≤ 100 nM | ≤ 100 nM | 1000 to 10000 nM | 100 to 500 nM |
| COC(C)(C)CCNC(=O)Nc1ccc(C)c(-c2cc(-c3cnn(C)c3)nc(N3CCOCC3)c2)c1 [Example 38] | ≤ 100 nM | ≤ 100 nM | 1000 to 10000 nM | – |
| Cc1ccc(NC(=O)Nc2cn(C)nc2C(F)(F)F)cc1-c1cc(OCCO)nc(N2CCOCC2)c1 [Example 42] | ≤ 100 nM | > 1000 nM | 1000 to 10000 nM | 1000 to 10000 nM |
| CC(=O)Nc1cc(-c2cc(-c3cc(NC(=O)NC4CC(C)(C)C4)c(F)cc3C)cc(OCCO)n2)ccn1 [Example 47] | ≤ 100 nM | ≤ 100 nM | 500 to 1000 nM | – |
| Cc1ccc(NC(=O)N[C@H]2C[C@](C)(F)C2)cc1-c1cc(OCCO)nc(-c2ccnc(NC(=O)CN(C)C)c2)c1 [Example 50] | ≤ 100 nM | ≤ 100 nM | 1000 to 10000 nM | – |
| CC(=O)Nc1cc(-c2cc(-c3cc(NC(=O)NCCC4(C)CC4)c(F)cc3C)cc(C3CC3)n2)ccn1 [Example 51] | ≤ 100 nM | ≤ 100 nM | 1000 to 10000 nM | – |
| CC(=O)Nc1cc(-c2cc(-c3cc(NC(=O)NCC45CC(F)(C4)C5)c(F)cc3C)cc(OCCO)n2)ccn1 [Example 52] | ≤ 100 nM | ≤ 100 nM | 1000 to 10000 nM | – |
| CC(=O)Nc1cc(-c2cc(-c3cc(NC(=O)NC4CCCCC4)c(F)cc3C)cc(OCCO)n2)ccn1 [Example 53] | ≤ 100 nM | ≤ 100 nM | 500 to 1000 nM | – |
| CC(=O)Nc1cc(-c2cc(-c3cc(NC(=O)NCCC4(C)CC4)c(F)cc3C)cc(C)n2)ccn1 [Example 55] | ≤ 100 nM | ≤ 100 nM | 1000 to 10000 nM | – |
| CC(=O)Nc1cc(-c2cc(-c3cc(NC(=O)NCCC4(C)CC4)ccc3C)cc(N3CCOCC3)n2)ccn1 [Example 57] | ≤ 100 nM | ≤ 100 nM | 1000 to 10000 nM | – |
| CC(=O)Nc1cc(-c2cc(-c3cc(NC(=O)NCCC(C)(C)C#N)c(F)cc3C)cc(C3CC3)n2)ccn1 [Example 59] | ≤ 100 nM | ≤ 100 nM | 1000 to 10000 nM | – |
| COC(C)(C)CCNC(=O)Nc1ccc(C)c(-c2cc(-c3ccnc(NC(C)=O)c3)n(C)c(=O)c2)c1 [Example 60] | ≤ 100 nM | 100 to 500 nM | 1000 to 10000 nM | – |
| CC(=O)Nc1cc(-c2cc(-c3cc(NC(=O)NC4CCC(F)(F)CC4)c(F)cc3C)cc(OCCO)n2)ccn1 [Example 63] | ≤ 100 nM | ≤ 100 nM | 1000 to 10000 nM | – |
| Cc1ccc(NC(=O)Nc2ccnc(C(C)(C)C#N)c2)cc1-c1ccnc(-c2ccnc(C(=O)NC3CC3)c2)c1 [Example 68] | ≤ 100 nM | ≤ 100 nM | 1000 to 10000 nM | – |
| CNC(=O)c1cc(-c2cc(-c3cc(NC(=O)Nc4ccnc(C(C)(C)C#N)c4)ccc3C)ccn2)ccn1 [Example 69] | ≤ 100 nM | ≤ 100 nM | 1000 to 10000 nM | 1000 to 10000 nM |
| COC(C)(C)CCNC(=O)Nc1cc(-c2cccc(-c3ccnc(NC(C)=O)c3)c2)c(C)cc1F [Example 71] | ≤ 100 nM | ≤ 100 nM | 1000 to 10000 nM | – |
| CNC(=O)c1cc(-c2cccc(-c3cc(NC(=O)NCCC(C)(C)OC)c(F)cc3C)c2)ccn1 [Example 72] | ≤ 100 nM | ≤ 100 nM | 1000 to 10000 nM | – |
| CNC(=O)c1cc(-c2cc(-c3cc(NC(=O)NC4CCCCC4)c(F)cc3C)cc(OCCO)n2)ccn1 [Example 205] | ≤ 100 nM | ≤ 100 nM | 1000 to 10000 nM | – |

The remaining lines, values ahead:

| IC50 (B-Raf (V600E) kinase) | IC50 (C-Raf kinase) | IC50 (Miapaca-2 cells) | IC50 (H2405 cells) | SMILES |
| --- | --- | --- | --- | --- |
| ≤ 100 nM | ≤ 100 nM | 100 to 500 nM | 100 to 500 nM | Cc1ccc(NC(=O)Nc2cnc(C(F)(F)F)s2)cc1-c1cc(OCCO)nc(N2CCOCC2)c1 [Example 43] |
| ≤ 100 nM | ≤ 100 nM | 1000 to 10000 nM | – | CC(=O)Nc1cc(-c2cc(-c3cc(NC(=O)Nc4ccc(C(F)(F)F)cc4)cnc3C)ccn2)ccn1 [Example 48] |
| ≤ 100 nM | ≤ 100 nM | 1000 to 10000 nM | 100 to 500 nM | CC(=O)Nc1cc(-c2cc(-c3cc(NC(=O)N[C@H]4C[C@](C)(F)C4)ccc3C)cc(OCCO)n2)ccn1 [Example 49] |
| ≤ 100 nM | ≤ 100 nM | 1000 to 10000 nM | – | CC(=O)Nc1cc(-c2cc(-c3cc(NC(=O)NCCC4(C(F)(F)F)CC4)c(F)cc3C)cc(C3CC3)n2)ccn1 [Example 54] |
| ≤ 100 nM | ≤ 100 nM | 1000 to 10000 nM | – | Cc1ccc(NC(=O)N[C@H]2C[C@](C)(F)C2)cc1-c1cc(-c2ccnc(NC(=O)C3CC3)c2)nc(C2CC2)c1 [Example 61] |
| ≤ 100 nM | ≤ 100 nM | 1000 to 10000 nM | – | Cc1cc(F)c(NC(=O)NCCC2(C)CC2)cc1-c1cccc(-c2ccnc(NC(=O)C3CC3)c2)c1 [Example 64] |
| ≤ 100 nM | ≤ 100 nM | 1000 to 10000 nM | – | Cc1cc(F)c(NC(=O)NCCC2(C)CC2)cc1-c1cccc(-c2cc(NC(=O)C3CC3)ncn2)c1 [Example 65] |
| ≤ 100 nM | ≤ 100 nM | 1000 to 10000 nM | 1000 to 10000 nM | Cc1cc(F)c(NC(=O)NCCC(C)(C)C#N)cc1-c1cccc(-c2ccnc(NC(=O)C3CC3)c2)c1 [Example 66] |
| ≤ 100 nM | ≤ 100 nM | 1000 to 10000 nM | 100 to 500 nM | Cc1cc(F)c(NC(=O)NCCC(C)(C)C#N)cc1-c1cccc(-c2cc(NC(=O)C3CC3)ncn2)c1 [Example 67] |
| ≤ 100 nM | ≤ 100 nM | 1000 to 10000 nM | 100 to 500 nM | Cc1ccc(NC(=O)N2CCC(C(F)(F)F)C2)cc1-c1cccc(-c2cc(NC(=O)C3CC3)ncn2)c1 (centres unmarked) [Example 73] |
| ≤ 100 nM | ≤ 100 nM | 1000 to 10000 nM | 1000 to 10000 nM | Cc1ncc(NC(=O)NCCC(C)(C)F)cc1-c1ccnc(-c2ccnc(NC(=O)C3CC3)c2)c1 [Example 75] |
| ≤ 100 nM | ≤ 100 nM | 1000 to 10000 nM | ≤ 100 nM | Cc1cc(F)c(NC(=O)NCCC2(C)CC2)cc1-c1cc(OCCO)nc(-c2ccnc(NC(=O)C3CC3)c2)c1 [Example 76] |
| 100 to 500 nM | 100 to 500 nM | – | 1000 to 10000 nM | COC(=O)Nc1cc(-c2cncc(-c3cc(NC(=O)N4CCCCCC4)ccc3C)c2)ccn1 [Example 202] |
| > 1000 nM | 100 to 500 nM | – | 500 to 1000 nM | COC(=O)Nc1cc(-c2cncc(-c3cc(NC(=O)N4CCCCC4)ccc3C)c2)ccn1 [Example 208] |
| 100 to 500 nM | ≤ 100 nM | – | 1000 to 10000 nM | Cc1ccc(NC(=O)N2CCC(F)(F)C2)cc1-c1cncc(-c2cc(NC(=O)C3CC3)ncn2)c1 [Example 209] |
| ≤ 100 nM | ≤ 100 nM | – | 100 to 500 nM | Cc1ccc(NC(=O)N2CC[C@@H](C(F)(F)F)C2)cc1-c1cncc(-c2cc(NC(=O)C3CC3)ncn2)c1 [Example 210] |
| ≤ 100 nM | ≤ 100 nM | – | 100 to 500 nM | COC(=O)Nc1cc(-c2cncc(-c3cc(NC(=O)N4CC[C@H](C(F)(F)F)C4)ccc3C)c2)ccn1 [Example 211] |
| 500 to 1000 nM | 500 to 1000 nM | – | 1000 to 10000 nM | COC(=O)Nc1cc(-c2cncc(-c3cc(NC(=O)N4CCCC4)ccc3C)c2)ccn1 [Example 213] |
| ≤ 100 nM | ≤ 100 nM | – | 100 to 500 nM | Cc1ccc(NC(=O)N2CCC3(CC3)C2)cc1-c1cncc(-c2cc(NC(=O)C3CC3)ncn2)c1 [Example 218] |
| 100 to 500 nM | ≤ 100 nM | – | 100 to 500 nM | Cc1ccc(NC(=O)N2CC[C@@H](C)C2)cc1-c1cncc(-c2cc(NC(=O)C3CC3)ncn2)c1 [Example 219] |
| ≤ 100 nM | ≤ 100 nM | – | 100 to 500 nM | COC(=O)Nc1cc(-c2cc(-c3cc(NC(=O)N4CCC(C(F)(F)F)C4)ccc3C)cc(OCCO)n2)ccn1 (centres unmarked) [Example 222] |
| > 1000 nM | 100 to 500 nM | – | 1000 to 10000 nM | COC(=O)Nc1cc(-c2cc(-c3cc(NC(=O)N4CC[C@H](C(F)(F)F)C4)ccc3C)nc(C)n2)ccn1 [Example 223] |
